# Patent US11472778B2, “Hepatitis C virus NS3/4A protease inhibitors” (priority 2017, dated 2022)
# Read-outs that look alike come from different tables or passages of the source.
# Key:
# [1] = tested on: HCV replicon D168V variant in Huh7 cells; assay: microbe, parasite or virus in culture; format: cell-based, Hepatitis C virus; conditions: for EC50: Hepatitis C virus; for Replicon EC50 (Fold change) D168V: Table 4, relative to WT replicon
# Experimental: (§1) Mutations (R155K, A516T, D168A and D168V) were constructed by site-directed mutagenesis using a Con1 (genotype 1b) luciferase reporter replicon containing the H77 (genotype 1a) NS3 sequence.
# Replicon RNA of each protease variant was introduced into Huh7 cells by electroporation. Replication was then assessed in the presence of increasing concentrations of protease inhibitors by measuring luciferase activity (relative light units) 96 h after electroporation. […]
# GT3a NS3/4A protease = molecular target: T1, GT3a NS3/4A protease (Hepatitis C virus genotype 3a, UniProt Q81495); assay: biochemical; conditions: for Ki (Fold change) GT3a NS3/4A Protease: Ki GT3a relative to GT1a WT
# T1 construct: drug-resistant variant D168A, and GT3a NS3/4A protease; made in house; host or cells: Escherichia coli BL21(DE3)
# T1 sequence (Q81495 1033-1214): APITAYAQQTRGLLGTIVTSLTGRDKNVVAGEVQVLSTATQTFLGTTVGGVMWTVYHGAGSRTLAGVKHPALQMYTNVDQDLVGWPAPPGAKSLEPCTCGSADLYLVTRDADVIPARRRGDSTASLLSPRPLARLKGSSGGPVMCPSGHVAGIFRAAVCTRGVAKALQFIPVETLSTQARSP
# Experimental: (§2) For each assay, 2 nM of NS3/4A protease (GT1, D168A and GT3) was pre-incubated at room temperature for 1 h with increasing concentration of inhibitors in assay buffer [50 mM Tris, 5% glycerol, 10 mM DTT, 0.6 mM LDAO, and 4% dimethyl sulfoxide]. Inhibition assays were performed in nonbinding surface 96-well black half-area plates (Corning) in a reaction volume of 60 μt. […] Three independent data sets were collected for each inhibitor with each protease construct.
# [2] = tested on: HCV replicon A156T variant in Huh7 cells; assay: microbe, parasite or virus in culture; format: cell-based, Hepatitis C virus; conditions: for EC50: Hepatitis C virus; for Replicon EC50 (Fold change) A156T: Table 4, relative to WT replicon
# Experimental: as §1
# (§3) Replicon RNA of each protease variant was introduced into Huh7 cells by electroporation. Replication was then assessed in the presence of increasing concentrations of protease inhibitors by measuring luciferase activity (relative light units) 96 h after electroporation.
# (§4) Mutations (R155K, D168A and A156T) were constructed by site-directed mutagenesis using a Con1 (genotype 1b) luciferase reporter replicon containing the H77 (genotype 1a) NS3 sequence.^6 Replicon RNA of each protease variant was introduced into Huh7 cells by electroporation. Replication was then assessed in the presence of increasing concentrations of protease inhibitors by measuring luciferase activity (relative light units) 96 h after electroporation.
# [3] = tested on: HCV replicon R155K variant in Huh7 cells; assay: microbe, parasite or virus in culture; format: cell-based, Hepatitis C virus; conditions: for EC50: Hepatitis C virus; for Replicon EC50 (Fold change) R155K: Table 4, relative to WT replicon
# Experimental: as §1, §3, §4
# [4] = tested on: HCV replicon D168A variant in Huh7 cells; assay: microbe, parasite or virus in culture; format: cell-based, Hepatitis C virus; conditions: for EC50: Hepatitis C virus; for Replicon EC50 (Fold change) D168A: Table 4, relative to WT replicon
# Experimental: as §1, §3, §4
# [5] = tested on: wild-type HCV replicon in Huh7 cells; assay: Cell-based drug susceptibility (replicon) assay, wild-type; conditions: Hepatitis C virus, read-out: Replicon EC50 (nM) WT
# Experimental: as §1, §3, §4
# [6] = molecular target: T2, wild-type GT1a NS3/4A protease (UniProt P27958, C1185S, species not given); format: biochemical, Hepatitis C virus; conditions: read-out: Ki (nM) GT1a WT NS3/4A Protease
# T2 construct: Ki (nM) GT1a WT NS3/4A Protease
# Experimental: as §2
# as §2, with “(GT1a” for “(GT1, D168A”, “D168A)” for “GT3)”, “(50” for “[50”, “sulfoxide, pH 7.5).” for “sulfoxide].”, “non-binding” for “nonbinding”, “μL.” for “μt.”
# (§5) For each assay, 2 nM of NS3/4A protease (GT1a, R155K and D168A) was pre-incubated at room temperature for 1 h with increasing concentration of inhibitors in assay buffer (50 mM Tris, 5% glycerol, 10 mM DTT, 0.6 mM LDAO, and 4% dimethyl sulfoxide, pH 7.5). Inhibition assays were performed in non-binding surface 96-well black half-area plates (Corning) in a reaction volume of 60 μL. […] Three independent data sets were collected for each inhibitor with each protease construct. […] Gibbs free energy of binding was calculated using the following equation: ΔG=RTlnKi
# [7] = molecular target: T3, GT1a D168A NS3/4A protease (UniProt P27958, C1185S/D1194A, species not given); format: biochemical, Hepatitis C virus; conditions: read-out: Ki (nM) GT1a D168A NS3/4A Protease
# T3 construct: Ki (nM) GT1a D168A NS3/4A Protease
# Experimental: as §2
# (§6) For each assay, 2 nM of NS3/4A protease (GT1a and D168A) was pre-incubated at room temperature for 1 h with increasing concentration of inhibitors in assay buffer (50 mM Tris, 5% glycerol, 10 mM DTT, 0.6 mM LDAO, and 4% dimethyl sulfoxide, pH 7.5). Inhibition assays were performed in non-binding surface 96-well black half-area plates (Corning) in a reaction volume of 60 μL. […] Three independent data sets were collected for each inhibitor with each protease construct.
# as §5
# [8] = molecular target: GT1a D168A NS3/4A protease; format: biochemical, Hepatitis C virus; conditions: Table 3; Ki D168A relative to GT1a WT
# Experimental: as §2, §6, §5
# [9] = Huh-7, 96 h, read-out: Replicon EC50 (nM) D168V, Table 2, Huh7 cells, luciferase 96 h
# [10] = Huh-7, read-out: Replicon EC50 (nM) D168V, Table 4
# [11] = Huh-7, 96 h, read-out: Replicon EC50 (nM) A156T, Table 2, Huh7 cells, luciferase 96 h
# [12] = Huh-7, read-out: Replicon EC50 (nM) A156T, Table 4
# [13] = Huh-7, 96 h, read-out: Replicon EC50 (nM) R155K, Table 2, Huh7 cells, luciferase 96 h
# [14] = Huh-7, read-out: Replicon EC50 (nM) R155K, Table 4
# [15] = Huh-7, 96 h, read-out: Replicon EC50 (nM) D168A, Table 2, Huh7 cells, luciferase 96 h
# [16] = Huh-7, read-out: Replicon EC50 (nM) D168A, Table 4
# [17] = Huh-7, 96 h, Table 2, Huh7 cells, luciferase 96 h
Compound,"EC50 [1, 9] [nM]","EC50 [1, 10] [nM]",Replicon EC50 (Fold change) D168V [1],Ki (GT3a NS3/4A protease) [nM],Ki (Fold change) GT3a NS3/4A Protease (GT3a NS3/4A protease; Table 3),"EC50 [2, 11] [nM]","EC50 [2, 12] [nM]",Replicon EC50 (Fold change) A156T [2],"EC50 [3, 13] [nM]","EC50 [3, 14] [nM]",Replicon EC50 (Fold change) R155K [3],"EC50 [4, 15] [nM]","EC50 [4, 16] [nM]",Replicon EC50 (Fold change) D168A [4],"EC50 [5, 17] [nM]","EC50 ([5]; Huh-7, Table 4) [nM]",Ki ([6]; Table 1) [nM],Ki ([6]; Table 3) [nM],Ki ([7]; Table 1) [nM],Ki ([7]; Table 3) [nM],further results
"COc1ccc2nc(Cl)c(O[C@@H]3C[C@H]4C(=O)N[C@]5(C(=O)NS(=O)(=O)C6CC6)C[C@H]5/C=C\CCCCC[C@H](NC(=O)OC5CCCC5)C(=O)N4C3)nc2c1 [Compound 22c, Cyclopentyl ((2R,6S,13aS,14aR,16aS,Z)-2-((3-chloro-7-methoxyquinoxalin-2-yl)oxy)-14a-((cyclopropylsulfonyl)carbamoyl)-5,16-dioxo-1,2,3,5,6,7,8,9,10,11,13a,14,14a,15,16,16a-hexadecahydrocyclopropa[e]pyrrolo[1,2-a][1,4]diazacyclopentadecin-6-yl)carbamate]",1.55,1.55,(10) fold,85.6,(175) fold,3.55,3.55,(24) fold,0.59,0.59,(4) fold,1.32,1.32,(9) fold,0.15,0.15,0.49,0.49,30.6,30.6 ± 2.6,Ki (Fold change) GT1a D168A NS3/4A Protease [8]: (62) fold
"COc1ccc2nc(C(F)(F)F)c(O[C@@H]3C[C@H]4C(=O)N[C@]5(C(=O)NS(=O)(=O)C6(C)CC6)C[C@H]5/C=C\CCCCC[C@H](NC(=O)OC5CCCC5)C(=O)N4C3)nc2c1 [Compound 23d, Cyclopentyl ((2R,6S,13aS,14aR,16aS,Z)-2-((7-methoxy-3-(trifluoromethyl)quinoxalin-2-yl)oxy)-14a-(((1-methylcyclopropyl)sulfonyl)carbamoyl)-5,16-dioxo-1,2,3,5,6,7,8,9,10,11,13a,14,14a,15,16,16a-hexadecahydrocyclopropa[e]pyrrolo[1,2-a][1,4]diazacyclopentadecin-6-yl)carbamate]",11.4,11.4,(3) fold,433,(53) fold,75.9,75.9,(19) fold,6.9,6.9,(2) fold,8.46,8.46,(2) fold,4.04,4.04,8.14,8.14,110,110 ± 14,Ki (Fold change) GT1a D168A NS3/4A Protease [8]: (14) fold
"CCc1nc2ccc(OC)cc2nc1O[C@@H]1C[C@H]2C(=O)N[C@]3(C(=O)NS(=O)(=O)C4CC4)C[C@H]3/C=C\CCCCC[C@H](NC(=O)OC3CCCC3)C(=O)N2C1 [Compound 22a, Cyclopentyl ((2R,6S,13aS,14aR,16aS,Z)-14a-((cyclopropylsulfonyl)carbamoyl)-2-((3-ethyl-7-methoxyquinoxalin-2-yl)oxy)-5,16-dioxo-1,2,3,5,6,7,8,9,10,11,13a,14,14a,15,16,16a-hexadecahydrocyclopropa[e]pyrrolo[1,2-a][1,4]diazacyclopentadecin-6-yl)carbamate]",11.9,11.9,(85) fold,211,(170) fold,11.8,11.8,(84) fold,2.08,2.08,(15) fold,3.6,3.6,(26) fold,0.14,0.14,1.24,1.24,52.3,52.3 ± 3.2,Ki (Fold change) GT1a D168A NS3/4A Protease [8]: (42) fold
"COc1ccc2nc(C(F)(F)F)c(O[C@@H]3C[C@H]4C(=O)N[C@]5(C(=O)NS(=O)(=O)C6CC6)C[C@H]5/C=C\CCCCC[C@H](NC(=O)OC5CCCC5)C(=O)N4C3)nc2c1 [Compound 22d, Cyclopentyl ((2R,6S,13aS,14aR,16aS,Z)-14a-((cyclopropylsulfonyl)carbamoyl)-2-((7-methoxy-3-(trifluoromethyl)quinoxalin-2-yl)oxy)-5,16-dioxo-1,2,3,5,6,7,8,9,10,11,13a,14,14a,15,16,16a-hexadecahydrocyclopropa[e]pyrrolo[1,2-a][1,4]diazacyclopentadecin-6-yl)carbamate]",24,24,(5) fold,757,(100) fold,117,117,(24) fold,7.97,7.97,(2) fold,15.1,15.1,(3) fold,4.86,4.86,7.55,7.55,115,115 ± 12,Ki (Fold change) GT1a D168A NS3/4A Protease [8]: (15) fold
"COc1ccc2nc(C(F)(F)F)c(O[C@@H]3C[C@H]4C(=O)N[C@]5(C(=O)NS(=O)(=O)C6(C)CC6)C[C@H]5/C=C\CCCCC[C@H](NC(=O)OC(C)(C)C)C(=O)N4C3)nc2c1 [Compound 19d, tert-Butyl ((2R,6S,13aS,14aR,16aS,Z)-2-((7-methoxy-3-(trifluoromethyl)quinoxalin-2-yl)oxy)-14a-(((1-methylcyclopropyl)sulfonyl)carbamoyl)-5,16-dioxo-1,2,3,5,6,7,8,9,10,11,13a,14,14a,15,16,16a-hexadecahydrocyclopropa[e]pyrrolo[1,2-a][1,4]diazacyclopentadecin-6-yl)carbamate]",8.31,8.31,(5) fold,231,(40) fold,20.5,20.5,(13) fold,2.3,2.3,(2) fold,8.64,8.64,(6) fold,1.52,1.52,5.77,5.77,118,118 ± 13,"Ki (GT3a NS3/4A protease; read-out: Ki (nM) GT3a NS3/4A Protease, Table 3): 231 ± 74 nM; Ki (Fold change) GT1a D168A NS3/4A Protease [8]: (20) fold"
